According to US12077483B2, “Modified amine lipids” (Intellia Therapeutics, Inc., priority 2018, dated 2024):

What was measured:
[1] = test system: TTR in HUH7 cells; assay: In vitro editing in HUH7 cells, LNP with Cas9 mRNA and sgRNA G000502, NGS; format: cell-based, human; settings: Table 14; 2000 ng RNA per well, cells harvested 6 hours post-transfection, biological duplicate, G000502 target locus
Description: A series of compounds based on Compound 46 that vary by the inclusion of a C4-12 alkyl at the R^3 position of Formula (IA) (as illustrated in FIG. 13A) were tested for in vitro editing. The human hepatocellular carcinoma cell line […] (Japanese Collection of Research Bioresources Cell Bank, Cat. JCRB0403) was cultured in DMEM media supplemented with 10% fetal bovine serum and 1% Penicillin-Streptomycin. Cells were plated at a density of 20,000 cells/well in a 96-well plate 24 hours prior to transfection (˜80% confluent at time of transfection). The LNPs were formulated at a 1:2 w/w ratio of sgRNA and Cas9 mRNA using the cross flow procedure with lipid molar compositions as described in Table 13 at an N/P ratio of 6.0. LNP compositions were analyzed for average particle size, polydispersity (pdi), total RNA content and encapsulation efficiency of RNA as described in Example 115. Analysis of average particle size, polydispersity (PDI), total RNA content and encapsulation efficiency of RNA are shown in Table 13. LNPs were diluted into media, incubated for 5 minutes at 37 C and pipetted onto cells at a dose of 2000 ng RNA per well. Each condition was assayed in biological duplicate. Cells were harvested post-transfection at 6 hours. Genomic DNA was extracted using 50 μL/well BuccalAmp DNA Extraction solution (Epicentre, Cat. QE09050) according to manufacturer's protocol. All DNA samples were subjected to PCR and subsequent NGS analysis for editing at the G000502 target locus, as described above. As shown in Table 14 and FIG. 13B, all compounds tested were efficacious for in vitro editing.

[2] = test system: mouse TTR gene; assay: In vivo editing in mouse liver, LNP with Cas9 mRNA and sgRNA G502, NGS; settings: G502, sgRNA:Cas9 mRNA 1:2 w/w, Example 119
Description: CD-1 female mice, ranging from 6-10 weeks of age were used in each study. Animals were weighed and grouped according to body weight for preparing dosing solutions based on group average weight. LNPs were dosed via the lateral tail vein in a volume of 0.2 mL per animal (approximately 10 mL per kilogram body weight). The animals were periodically observed for adverse effects for at least 24 hours post dose.
For studies measuring in vivo editing in liver, CD-1 female mice were dosed at 0.1 mpk unless otherwise noted. Animals were euthanized at 6 or 7 days by exsanguinationvia cardiac puncture under isoflourane anesthesia. Liver tissue was collected from each animal for DNA extraction and analysis. Blood was collected into serum separator tubes or into tubes containing buffered sodium citrate for plasma as described herein. Cohorts of mice were measured for editing by Next-Generation Sequencing (NGS).
In brief, to quantitatively determine the efficiency of editing at the target location in the genome, genomic DNA was isolated and deep sequencing was utilized to identify the presence of insertions and deletions introduced by gene editing.
PCR primers were designed around the target site (e.g., B2M), and the genomic area of interest was amplified. […] The reads were aligned to the relevant reference genome (e.g., GRCm38) after eliminating those having low quality scores. The resulting files containing the reads were mapped to the reference genome (BAM files), where reads that overlapped the target region of interest were selected and the number of wild type reads versus the number of reads which contain an insertion, substitution, or deletion was calculated.
The editing percentage (e.g., the “editing efficiency” or “percent editing”) is defined as the total number of sequence reads with insertions or deletions over the total number of sequence reads, including wild type.
We assessed in vivo editing efficiency for materials delivered with formulations with variable tail lengths through in vivo editing experiments. […]

[3] = test system: rat TTR; assay: Serum TTR levels in rats after LNP delivery; format: in vivo; settings: Table 11, G534, Sprague Dawley female rats i.v.

SMILES | Editing [1] [%] | efficacy for in vivo editing (in words) [2] | Serum TTR ([3]; dose 0.03 mpk) [µg/mL] | Serum TTR % TSS ([3]; dose 0.03 mpk) [% TSS] | Serum TTR ([3]; dose 0.1 mpk) [µg/mL] | Serum TTR % TSS ([3]; dose 0.1 mpk) [% TSS]
CCCCC/C=C\C/C=C\CCCCCCCC(=O)OCC(COC(=O)CCCCCCC/C=C\C/C=C\CCCCC)OC(=O)CCC(CCCCC)OC(=O)NCCN1CCCC1 (stereo not shown) [Compound 72, 2-((4-(((2-(pyrrolidin-1l-yl)ethyl)carbamoyl)oxy)nonanoyl)oxy)propane-1,3-diyl (9Z,9′Z,12Z,12′Z)-bis(octadeca-9,12-dienoate)] | 65.8 | efficacious | – | – | – | –
CCCCC/C=C\C/C=C\CCCCCCCC(=O)OCC(COC(=O)CCCCCCC/C=C\C/C=C\CCCCC)OC(=O)CCC(CCCCCCCC)OC(=O)NCCN1CCCC1 (stereo not shown) [Compound 51, 2-((4-(((2-(pyrrolidin-1-yl)ethyl)carbamoyl)oxy)dodecanoyl)oxy)propane-1,3-diyl (9Z,9′Z,12Z,12′Z)-bis(octadeca-9,12-dienoate)] | 69.0 | efficacious | – | – | – | –
CCCCC/C=C\C/C=C\CCCCCCCC(=O)OCC(COC(=O)CCCCCCC/C=C\C/C=C\CCCCC)OC(=O)CCC(CCCCCC)OC(=O)NCCN1CCCC1 (racemic) [Compound 50, 2-((4-(((2-(pyrrolidin-1-yl)ethyl)carbamoyl)oxy)decanoyl)oxy)propane-1,3-diyl (9Z,9′Z,12Z,12′Z)-bis(octadeca-9,12-dienoate)] | 64.3 | efficacious | 581.7 | 69 | 116.6 | 14
